Laboratory results: ChEMBL document CHEMBL5715954, “Silencing c-Myc translation as a therapeutic strategy through targeting PI3Kδ and CK1ε in hematological malignancies” (Blood, 2017)

Key:
Parameters in all cases: scale not given: the % may be the effect or the level left
[1] = molecular target: Ribosomal protein S6 kinase alpha-3 (Homo sapiens) (UniProt P51812); assay: Inhibition of human RSK2 assessed as enzyme activity at 1 uM using KKLNRTLSVA as substrate preincubated for 20 mins followed by [gamma-33P]-ATP addition and measured after 120 mins by radiometric Hot-SpotSM Kinase assay relative to control
[2] = molecular target: T1, Serine/threonine-protein kinase A-Raf (Homo sapiens) (UniProt P10398); assay: Inhibition of human ARAF assessed as enzyme activity at 1 uM using MEK1 (K97R) as substrate preincubated for 20 mins followed by [gamma-33P]-ATP addition and measured after 120 mins by radiometric Hot-SpotSM Kinase assay relative to control
T1 sequence (whole entry): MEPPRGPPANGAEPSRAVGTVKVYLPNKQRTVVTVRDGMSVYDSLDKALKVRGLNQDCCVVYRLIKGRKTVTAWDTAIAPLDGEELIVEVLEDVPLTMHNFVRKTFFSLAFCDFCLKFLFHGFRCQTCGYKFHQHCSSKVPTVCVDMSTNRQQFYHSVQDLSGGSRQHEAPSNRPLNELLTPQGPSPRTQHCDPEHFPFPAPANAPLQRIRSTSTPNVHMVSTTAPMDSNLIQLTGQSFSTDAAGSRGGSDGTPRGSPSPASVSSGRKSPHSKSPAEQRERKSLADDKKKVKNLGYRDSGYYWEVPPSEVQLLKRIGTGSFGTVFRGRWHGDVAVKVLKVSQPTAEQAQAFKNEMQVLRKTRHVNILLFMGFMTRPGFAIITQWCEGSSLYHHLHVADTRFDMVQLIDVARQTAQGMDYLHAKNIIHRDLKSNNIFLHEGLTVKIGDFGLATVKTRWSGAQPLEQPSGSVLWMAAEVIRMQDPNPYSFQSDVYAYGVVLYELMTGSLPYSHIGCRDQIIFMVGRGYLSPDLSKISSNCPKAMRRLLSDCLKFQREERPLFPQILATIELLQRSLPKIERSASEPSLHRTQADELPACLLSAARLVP

[3] = molecular target: Protein kinase C delta type (Homo sapiens) (UniProt Q05655); assay: Inhibition of human PKCd assessed as enzyme activity at 1 uM using ERMRPRKRQGSVRRRV as substrate preincubated for 20 mins followed by [gamma-33P]-ATP addition and measured after 120 mins by radiometric Hot-SpotSM Kinase assay relative to control
[4] = molecular target: Mitogen-activated protein kinase kinase kinase 20 (Homo sapiens) (UniProt Q9NYL2); assay: Inhibition of human ZAK/MLTK assessed as enzyme activity at 1 uM using myelin basic protein as substrate preincubated for 20 mins followed by [gamma-33P]-ATP addition and measured after 120 mins by radiometric Hot-SpotSM Kinase assay relative to control
[5] = molecular target: Serine/threonine-protein kinase/endoribonuclease IRE1 (Homo sapiens) (UniProt O75460); assay: Inhibition of human ERN1 assessed as enzyme activity at 1 uM using myelin basic protein as substrate preincubated for 20 mins followed by [gamma-33P]-ATP addition and measured after 120 mins by radiometric Hot-SpotSM Kinase assay relative to control
[6] = molecular target: T2, Serine/threonine-protein kinase D2 (Homo sapiens) (UniProt Q9BZL6); assay: Inhibition of human PKD2 assessed as enzyme activity at 1 uM using KKLNRTLSVA as substrate preincubated for 20 mins followed by [gamma-33P]-ATP addition and measured after 120 mins by radiometric Hot-SpotSM Kinase assay relative to control
T2 sequence (whole entry): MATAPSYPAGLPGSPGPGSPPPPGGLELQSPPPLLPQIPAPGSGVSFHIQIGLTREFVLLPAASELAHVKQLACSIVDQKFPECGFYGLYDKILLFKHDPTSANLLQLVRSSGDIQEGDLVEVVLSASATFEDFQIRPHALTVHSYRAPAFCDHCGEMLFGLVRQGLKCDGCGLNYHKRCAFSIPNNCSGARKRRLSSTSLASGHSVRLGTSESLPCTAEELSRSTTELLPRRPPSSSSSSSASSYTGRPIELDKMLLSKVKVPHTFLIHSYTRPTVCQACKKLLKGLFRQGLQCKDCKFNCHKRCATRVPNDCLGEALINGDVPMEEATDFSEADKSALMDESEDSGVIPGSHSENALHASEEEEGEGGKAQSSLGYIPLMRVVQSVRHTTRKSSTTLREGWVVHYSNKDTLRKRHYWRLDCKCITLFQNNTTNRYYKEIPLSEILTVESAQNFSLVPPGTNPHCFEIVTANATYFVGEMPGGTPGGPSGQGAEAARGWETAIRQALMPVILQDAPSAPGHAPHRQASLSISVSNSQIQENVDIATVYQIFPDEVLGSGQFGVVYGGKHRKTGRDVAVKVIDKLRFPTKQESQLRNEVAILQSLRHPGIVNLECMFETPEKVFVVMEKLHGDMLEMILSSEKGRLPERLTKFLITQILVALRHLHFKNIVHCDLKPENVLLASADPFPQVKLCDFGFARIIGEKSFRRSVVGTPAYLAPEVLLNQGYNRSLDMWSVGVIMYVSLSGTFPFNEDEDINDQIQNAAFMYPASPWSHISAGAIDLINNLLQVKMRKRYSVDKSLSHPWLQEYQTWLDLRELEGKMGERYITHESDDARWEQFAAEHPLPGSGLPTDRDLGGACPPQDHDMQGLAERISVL

[7] = molecular target: T3, Dual specificity mitogen-activated protein kinase kinase 6 (Homo sapiens) (UniProt P52564); assay: Inhibition of human MKK6 assessed as enzyme activity at 1 uM using p38a (K53A) as substrate preincubated for 20 mins followed by [gamma-33P]-ATP addition and measured after 120 mins by radiometric Hot-SpotSM Kinase assay relative to control
T3 sequence (whole entry): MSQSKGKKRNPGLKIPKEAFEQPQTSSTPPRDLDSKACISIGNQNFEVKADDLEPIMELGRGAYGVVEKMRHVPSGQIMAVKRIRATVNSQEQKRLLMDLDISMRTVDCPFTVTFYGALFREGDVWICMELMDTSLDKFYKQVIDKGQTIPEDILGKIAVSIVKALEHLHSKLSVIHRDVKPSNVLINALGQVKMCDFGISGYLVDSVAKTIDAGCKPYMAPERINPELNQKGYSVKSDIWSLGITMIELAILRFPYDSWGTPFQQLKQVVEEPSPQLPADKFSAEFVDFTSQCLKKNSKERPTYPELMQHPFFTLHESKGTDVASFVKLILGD

[8] = molecular target: Serine/threonine-protein kinase SIK3 (Homo sapiens) (UniProt Q9Y2K2); assay: Inhibition of human SIK3 assessed as enzyme activity at 1 uM using AMARAASAAALARRR as substrate preincubated for 20 mins followed by [gamma-33P]-ATP addition and measured after 120 mins by radiometric Hot-SpotSM Kinase assay relative to control
Serine/threonine-protein kinase SIK3 (Homo sapiens), sequence (Q9Y2K2 whole entry, looked up): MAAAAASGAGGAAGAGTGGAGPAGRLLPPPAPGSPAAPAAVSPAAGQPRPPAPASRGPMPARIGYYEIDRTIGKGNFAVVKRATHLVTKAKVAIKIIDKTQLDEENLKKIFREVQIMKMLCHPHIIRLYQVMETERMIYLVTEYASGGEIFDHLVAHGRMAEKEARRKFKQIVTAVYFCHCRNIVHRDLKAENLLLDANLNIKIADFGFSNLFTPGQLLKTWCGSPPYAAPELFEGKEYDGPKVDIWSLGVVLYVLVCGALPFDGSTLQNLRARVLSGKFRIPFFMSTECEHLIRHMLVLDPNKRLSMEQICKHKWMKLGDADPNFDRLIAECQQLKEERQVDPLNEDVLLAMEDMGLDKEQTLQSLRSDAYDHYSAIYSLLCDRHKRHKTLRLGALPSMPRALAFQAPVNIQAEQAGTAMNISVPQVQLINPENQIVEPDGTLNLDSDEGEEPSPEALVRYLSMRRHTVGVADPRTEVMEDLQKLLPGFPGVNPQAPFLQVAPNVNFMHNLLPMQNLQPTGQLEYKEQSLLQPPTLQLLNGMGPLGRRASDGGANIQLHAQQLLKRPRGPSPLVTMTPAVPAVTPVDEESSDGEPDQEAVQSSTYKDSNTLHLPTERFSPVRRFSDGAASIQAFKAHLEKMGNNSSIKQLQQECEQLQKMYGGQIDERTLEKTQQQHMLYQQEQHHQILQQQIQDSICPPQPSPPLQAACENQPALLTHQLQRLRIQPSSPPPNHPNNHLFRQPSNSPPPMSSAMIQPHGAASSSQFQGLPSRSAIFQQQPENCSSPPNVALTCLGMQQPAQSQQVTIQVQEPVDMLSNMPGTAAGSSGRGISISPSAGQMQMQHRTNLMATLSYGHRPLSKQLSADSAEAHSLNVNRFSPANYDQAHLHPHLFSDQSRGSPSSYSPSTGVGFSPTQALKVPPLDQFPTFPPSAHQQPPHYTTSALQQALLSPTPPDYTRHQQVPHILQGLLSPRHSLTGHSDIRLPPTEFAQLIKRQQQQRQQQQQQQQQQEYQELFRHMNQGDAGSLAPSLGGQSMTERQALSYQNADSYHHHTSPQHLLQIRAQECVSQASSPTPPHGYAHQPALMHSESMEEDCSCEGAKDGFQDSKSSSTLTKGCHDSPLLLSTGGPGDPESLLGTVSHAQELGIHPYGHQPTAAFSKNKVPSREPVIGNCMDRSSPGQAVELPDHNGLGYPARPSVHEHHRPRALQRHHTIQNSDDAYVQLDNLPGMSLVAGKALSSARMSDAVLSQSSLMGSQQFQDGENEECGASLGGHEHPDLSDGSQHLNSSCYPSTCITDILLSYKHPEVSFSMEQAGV

Mitogen-activated protein kinase kinase kinase 20 (Homo sapiens), sequence (Q9NYL2 2-800 limits assumed): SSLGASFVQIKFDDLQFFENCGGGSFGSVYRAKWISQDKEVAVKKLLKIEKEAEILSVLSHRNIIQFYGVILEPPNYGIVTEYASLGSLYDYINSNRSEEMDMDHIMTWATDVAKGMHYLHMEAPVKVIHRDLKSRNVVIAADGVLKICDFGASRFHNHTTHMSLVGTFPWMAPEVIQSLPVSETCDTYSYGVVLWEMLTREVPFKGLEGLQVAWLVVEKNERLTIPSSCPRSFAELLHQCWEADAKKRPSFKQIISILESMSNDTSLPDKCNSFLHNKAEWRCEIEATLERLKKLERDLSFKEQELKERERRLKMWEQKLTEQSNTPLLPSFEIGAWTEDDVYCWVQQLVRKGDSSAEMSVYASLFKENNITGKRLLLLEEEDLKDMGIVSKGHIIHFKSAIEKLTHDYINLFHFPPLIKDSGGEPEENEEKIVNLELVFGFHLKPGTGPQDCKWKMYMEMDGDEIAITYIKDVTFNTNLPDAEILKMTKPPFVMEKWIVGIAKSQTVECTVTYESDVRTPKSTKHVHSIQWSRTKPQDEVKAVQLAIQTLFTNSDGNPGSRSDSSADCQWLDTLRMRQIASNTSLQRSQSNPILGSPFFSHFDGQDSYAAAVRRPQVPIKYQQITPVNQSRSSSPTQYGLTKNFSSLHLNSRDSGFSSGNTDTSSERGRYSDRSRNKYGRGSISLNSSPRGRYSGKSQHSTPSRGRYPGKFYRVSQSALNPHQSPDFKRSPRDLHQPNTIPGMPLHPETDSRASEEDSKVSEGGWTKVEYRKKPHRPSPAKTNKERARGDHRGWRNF
Protein kinase C delta type (Homo sapiens), sequence (Q05655 whole entry, looked up): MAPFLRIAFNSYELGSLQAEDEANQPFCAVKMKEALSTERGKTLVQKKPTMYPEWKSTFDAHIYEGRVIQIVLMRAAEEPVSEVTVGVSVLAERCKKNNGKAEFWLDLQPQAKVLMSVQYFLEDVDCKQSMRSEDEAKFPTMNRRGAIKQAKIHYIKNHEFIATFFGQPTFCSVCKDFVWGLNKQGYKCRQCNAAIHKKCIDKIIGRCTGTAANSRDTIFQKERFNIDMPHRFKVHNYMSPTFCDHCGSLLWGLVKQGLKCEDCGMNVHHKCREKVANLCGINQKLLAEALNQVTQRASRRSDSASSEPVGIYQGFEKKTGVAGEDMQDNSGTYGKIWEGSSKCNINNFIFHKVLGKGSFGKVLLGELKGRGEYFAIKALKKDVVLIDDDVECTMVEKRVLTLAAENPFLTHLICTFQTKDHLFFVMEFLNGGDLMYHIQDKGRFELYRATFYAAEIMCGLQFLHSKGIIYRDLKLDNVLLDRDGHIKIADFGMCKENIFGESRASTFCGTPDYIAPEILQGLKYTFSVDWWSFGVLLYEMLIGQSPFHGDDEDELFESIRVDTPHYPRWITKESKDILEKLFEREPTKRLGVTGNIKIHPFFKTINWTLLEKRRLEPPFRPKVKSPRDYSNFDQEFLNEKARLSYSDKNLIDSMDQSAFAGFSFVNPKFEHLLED
Serine/threonine-protein kinase/endoribonuclease IRE1 (Homo sapiens), sequence (O75460 19-977 limits assumed): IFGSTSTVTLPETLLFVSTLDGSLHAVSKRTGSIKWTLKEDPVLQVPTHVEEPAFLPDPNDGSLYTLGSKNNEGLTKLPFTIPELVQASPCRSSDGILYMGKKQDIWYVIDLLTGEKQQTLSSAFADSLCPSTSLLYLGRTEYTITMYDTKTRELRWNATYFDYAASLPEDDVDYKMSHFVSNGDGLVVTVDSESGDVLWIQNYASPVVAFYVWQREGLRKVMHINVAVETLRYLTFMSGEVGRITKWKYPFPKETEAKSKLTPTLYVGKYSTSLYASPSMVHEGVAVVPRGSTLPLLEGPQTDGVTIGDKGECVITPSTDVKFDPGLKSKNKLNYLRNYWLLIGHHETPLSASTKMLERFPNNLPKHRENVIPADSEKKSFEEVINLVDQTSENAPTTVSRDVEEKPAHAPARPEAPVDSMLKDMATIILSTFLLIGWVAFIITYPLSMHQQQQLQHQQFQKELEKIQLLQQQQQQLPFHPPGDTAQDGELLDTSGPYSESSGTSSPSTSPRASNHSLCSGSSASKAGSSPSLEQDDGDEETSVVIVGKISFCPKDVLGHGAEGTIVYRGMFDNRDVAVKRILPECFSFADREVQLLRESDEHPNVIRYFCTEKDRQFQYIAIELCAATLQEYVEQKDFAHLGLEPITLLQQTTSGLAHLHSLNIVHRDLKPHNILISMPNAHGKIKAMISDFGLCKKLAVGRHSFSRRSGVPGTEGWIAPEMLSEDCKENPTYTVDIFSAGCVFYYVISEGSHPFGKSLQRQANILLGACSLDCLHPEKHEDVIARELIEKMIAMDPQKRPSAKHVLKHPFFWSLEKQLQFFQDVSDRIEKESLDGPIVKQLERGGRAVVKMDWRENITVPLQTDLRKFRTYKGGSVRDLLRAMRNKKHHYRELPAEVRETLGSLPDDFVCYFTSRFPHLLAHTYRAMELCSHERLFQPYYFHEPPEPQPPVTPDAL
Ribosomal protein S6 kinase alpha-3 (Homo sapiens), sequence (P51812 whole entry): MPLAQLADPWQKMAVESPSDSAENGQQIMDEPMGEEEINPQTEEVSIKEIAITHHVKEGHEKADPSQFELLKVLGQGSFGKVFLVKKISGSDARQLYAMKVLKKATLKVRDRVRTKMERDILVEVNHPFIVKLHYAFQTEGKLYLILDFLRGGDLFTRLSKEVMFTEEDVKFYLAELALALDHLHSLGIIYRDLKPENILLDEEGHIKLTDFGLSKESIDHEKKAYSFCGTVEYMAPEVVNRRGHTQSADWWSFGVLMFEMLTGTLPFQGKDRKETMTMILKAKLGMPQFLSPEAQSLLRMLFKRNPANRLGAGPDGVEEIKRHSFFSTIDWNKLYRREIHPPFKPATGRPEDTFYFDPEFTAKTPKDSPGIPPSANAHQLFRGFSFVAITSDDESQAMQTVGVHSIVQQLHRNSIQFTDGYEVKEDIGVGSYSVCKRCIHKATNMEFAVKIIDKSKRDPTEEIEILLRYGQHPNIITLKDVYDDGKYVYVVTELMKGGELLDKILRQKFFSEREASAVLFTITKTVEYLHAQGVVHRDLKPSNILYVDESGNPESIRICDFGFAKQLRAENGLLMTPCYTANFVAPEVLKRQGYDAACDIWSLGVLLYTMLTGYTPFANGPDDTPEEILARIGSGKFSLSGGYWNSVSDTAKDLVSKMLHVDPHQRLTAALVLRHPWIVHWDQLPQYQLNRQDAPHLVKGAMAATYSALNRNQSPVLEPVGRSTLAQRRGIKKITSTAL

| SMILES | Activity [1] [%] | Activity [2] [%] | Activity [3] [%] | Activity [4] [%] | Activity [5] [%] | Activity [6] [%] | Activity [7] [%] | Activity [8] [%] |
| --- | --- | --- | --- | --- | --- | --- | --- | --- |
| C[C@H](Nc1ncnc2nc[nH]c12)c1cc2cccc(Cl)c2c(=O)n1-c1ccccc1 | 97.7 | 86.4 | 93.9 | 88.7 | 97.3 | 99.2 | 86.2 | 92.6 |
| CC[C@H](Nc1ncnc2[nH]cnc12)c1nc2cccc(F)c2c(=O)n1-c1ccccc1 | 101 | 92.3 | 95.2 | 96.5 | 96.4 | 101 | 87.2 | 93.8 |
| CC(C)Oc1ccc(-c2nn([C@@H](C)c3oc4ccc(F)cc4c(=O)c3-c3cccc(F)c3)c3ncnc(N)c23)cc1F [UMBRALISIB] | 106 | 84.4 | 104 | 92.3 | 91.6 | 101 | 87.8 | 96.6 |
